Experiments:
[1] = organism: Mus musculus; assay type: functional, Plasma; details: at 10 mg/kg/day
[2] = organism: Rattus norvegicus; assay type: functional, Plasma; details: at 10 mg/kg/day
[3] = in vivo; details: male, Sprague-Dawley, rat, po, 10 mg/kg
[4] = organism: Rattus norvegicus; assay type: functional, Plasma; details: at 10 mg/kg/day; remark: listed apart in the source
[5] = biological target: T1, Peroxisome proliferator-activated receptor alpha (Homo sapiens, UniProt Q07869)
T1 sequence (Q07869 whole entry): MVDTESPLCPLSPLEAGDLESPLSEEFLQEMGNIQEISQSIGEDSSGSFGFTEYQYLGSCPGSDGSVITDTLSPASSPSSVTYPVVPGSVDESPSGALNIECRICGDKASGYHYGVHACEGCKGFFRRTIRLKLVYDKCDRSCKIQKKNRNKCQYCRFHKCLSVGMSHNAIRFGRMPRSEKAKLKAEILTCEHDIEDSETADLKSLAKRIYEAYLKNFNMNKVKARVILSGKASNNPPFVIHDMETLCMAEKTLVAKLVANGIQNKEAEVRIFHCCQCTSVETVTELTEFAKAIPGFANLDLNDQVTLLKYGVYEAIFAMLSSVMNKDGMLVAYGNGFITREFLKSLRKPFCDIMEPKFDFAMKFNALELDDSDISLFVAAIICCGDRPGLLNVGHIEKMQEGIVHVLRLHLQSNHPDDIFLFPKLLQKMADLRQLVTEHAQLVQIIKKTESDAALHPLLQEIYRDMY

[6] = organism: Rattus norvegicus; assay type: functional, Plasma; details: at 10 mg/kg/day; remark: listed apart in the source
[7] = organism: Mus musculus; assay type: functional, Plasma; details: at 30 mg/kg/day
[8] = organism: Rattus norvegicus; assay type: functional, Plasma; details: at 30 mg/kg/day
[9] = organism: Mus musculus; assay type: functional, Plasma; details: at 10 mg/kg/day; remark: listed apart in the source
[10] = in vivo; details: male, Sprague-Dawley, rat, iv
[11] = biological target: T1, Peroxisome proliferator-activated receptor alpha; remark: listed apart in the source
[12] = organism: Mus musculus; details: Plasma
[13] = organism: Rattus norvegicus; assay type: functional, Plasma; details: at 30 mg/kg/day; remark: listed apart in the source
[14] = organism: Mus musculus; assay type: functional, Plasma; details: at 30 mg/kg/day; remark: listed apart in the source
[15] = organism: Rattus norvegicus; assay type: functional, Plasma; details: at 30 mg/kg/day; remark: listed apart in the source
[16] = organism: Mus musculus; assay type: functional, Plasma; details: at 30 mg/kg/day; remark: listed apart in the source
[17] = organism: Mus musculus; assay type: functional, Plasma; details: at 30 mg/kg/day; remark: listed apart in the source
[18] = organism: Rattus norvegicus; assay type: functional, Plasma; details: at 3 mg/kg/day
[19] = organism: Rattus norvegicus; assay type: functional, Plasma; details: at 30 mg/kg/day; remark: listed apart in the source
[20] = organism: Rattus norvegicus; assay type: functional, Plasma; details: at 3 mg/kg/day; remark: listed apart in the source
[21] = organism: Rattus norvegicus; details: in vivo, po, 10 mg/kg
[22] = organism: Rattus norvegicus; assay type: functional, Plasma; details: at 3 mg/kg/day; remark: listed apart in the source
[23] = organism: Rattus norvegicus; assay type: functional, Plasma; details: at 30 mg/kg/day; remark: listed apart in the source
[24] = biological target: T2, Peroxisome proliferator-activated receptor delta (Homo sapiens, UniProt Q03181)
T2 sequence (Q03181 whole entry): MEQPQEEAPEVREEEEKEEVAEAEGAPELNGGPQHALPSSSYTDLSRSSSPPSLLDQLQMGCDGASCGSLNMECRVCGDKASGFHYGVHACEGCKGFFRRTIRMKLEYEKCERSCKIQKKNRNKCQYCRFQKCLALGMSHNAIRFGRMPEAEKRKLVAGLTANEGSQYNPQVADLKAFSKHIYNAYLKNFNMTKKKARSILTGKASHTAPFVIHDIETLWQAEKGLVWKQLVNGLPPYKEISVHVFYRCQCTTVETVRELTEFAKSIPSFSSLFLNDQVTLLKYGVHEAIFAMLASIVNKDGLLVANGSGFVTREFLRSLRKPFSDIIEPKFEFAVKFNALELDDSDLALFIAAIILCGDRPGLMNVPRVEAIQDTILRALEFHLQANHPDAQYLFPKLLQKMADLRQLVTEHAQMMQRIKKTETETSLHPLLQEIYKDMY

[25] = organism: Mus musculus; assay type: functional, Plasma; details: at 3 mg/kg/day
[26] = organism: Mus musculus; assay type: functional, Plasma; details: at 3 mg/kg/day; remark: listed apart in the source
[27] = in vivo; details: male, Sprague-Dawley, rat, iv; remark: listed apart in the source
[28] = biological target: T2, Peroxisome proliferator-activated receptor delta; remark: listed apart in the source
[29] = organism: Rattus norvegicus; assay type: functional, Plasma; details: at 100 mg/kg/day
[30] = organism: Rattus norvegicus; assay type: functional, Plasma; details: at 100 mg/kg/day; remark: listed apart in the source
[31] = organism: Rattus norvegicus; assay type: functional, Plasma; details: at 100 mg/kg/day; remark: listed apart in the source
[32] = organism: Mus musculus; assay type: functional, Plasma; details: at 100 mg/kg/day
[33] = organism: Mus musculus; assay type: functional, Plasma; details: at 100 mg/kg/day; remark: listed apart in the source

SMILES | Dec [1] [%] | Dec [2] [%] | bioavailability [3] [%] | Dec [4] [%] | EC50 ([5]; read-out: EC50) [nM] | Corr [6] [%] | Dec [8] [%] | Corr [9] [%] | half-life [10] [h] | IC50 [11] [nM] | Dec [13] [%] | Corr [15] [%] | EC50 [24] [nM] | clearance [27] [mL/min/kg] | IC50 [28] [nM] | also measured
CCCc1c(OCCCSc2ccc(CC(=O)O)cc2Cl)ccc2c(-c3ccccc3)coc12 [L-796449] | 72 | 13 | 84 | 67 | 18 | 27 | 66 | 77 | 2.1 | 54 | 88 | 56 |  |  |  | Dec [7]: 86%; CL (mL.min-1.kg-1) [12]: 3.3; Corr [14]: 94%
CN(CCOc1ccc(CC2SC(=O)NC2=O)cc1)c1ccccn1 (stereo not given) [ROSIGLITAZONE] | 75 | 78 |  | 54 |  | 99 | 94 | 65 |  |  | 86 | 109 |  |  |  | EC50 [5]: Not Active
CCCc1c(OCCCSc2ccc(CC(=O)O)cc2Cl)ccc2c(C(F)(F)F)noc12 | 46 | -53 | 100 | 52 | 125 | 83 |  | 71 | 4.7 | 310 |  | 95 | 5 | 2.6 | 10 | Corr [16]: 96%; Dec [17]: 81%; Dec [18]: -34%; Dec [19]: -65%; Dec [20]: 45%; nAUC [21]: 2520 ng·h/mL; Corr [22]: 18%; Dec [23]: 74%; Dec [25]: 46%; Corr [26]: 30%
CCCc1c(OCCCSc2ccc(CC(=O)O)cc2Cl)ccc(C(C)=O)c1O |  |  |  |  | 1600 |  |  |  |  | 7400 |  |  | 80 |  | 20 | 
CCCc1c(OCCCSc2ccc(CC(=O)O)cc2Cl)ccc(C(=O)CC)c1O |  |  |  |  | 260 |  |  |  |  | 600 |  |  | 10 |  | 20 | 
CCCc1c(OCCCSc2ccc(CC(=O)O)cc2Cl)ccc(/C(CC)=N/O)c1O |  |  | 33 |  | 74 |  | 65 |  | 2.8 | 100 | 15 | 44 | 9 | 5.7 | 10 | Dec [29]: 80%; Corr [30]: 89%; Dec [31]: 54%
CCCc1c(OCCCSc2ccc(CC(=O)O)cc2Cl)ccc2c(CC)noc12 [L-165461] |  |  | 50 |  | 247 |  | 42 |  | 1 | 570 | -14 | 29 |  | 17.6 |  | Dec [29]: 70%; Dec [32]: 67%; Corr [30]: 66%; Corr [33]: 33%; Dec [31]: 52%
CCCc1c(OCCCSc2ccc(CC(=O)O)cc2Cl)ccc2c(CC)coc12 |  |  |  |  | 1300 |  |  |  |  | 1730 |  |  |  |  |  | Dec [7]: 60%; Corr [14]: 74%

From ChEMBL document CHEMBL1136679, “Phenylacetic acid derivatives as hPPAR agonists” (Bioorg Med Chem Lett, 2003)
